What is called EC50 is the concentration that produces a half-maximal response. Lower therefore signals greater potency. The term IC50 denotes the concentration that gives 50% inhibition.

Some results are limits rather than exact numbers.

For one experiment, the species on record is Cavia porcellus. The experiment is described as follows: Increasing force in skinned fibers at constant buffered Ca-concentration. Type of experiment: functional.
In another experiment the target is Phosphodiesterase 3 (Homo sapiens, UniProt Q14432+Q13370). Description: Inhibition of guinea pig heart Phosphodiesterase 3. The format is protein assay, Cavia porcellus. Particulars: target entry is the homologue from another species.

In turn, `COc1ccc(C(=O)N2CCCc3cc(C4=NNC(=O)SC4C)ccc32)cc1OC` (stereo in doubt; form 1) had an EC50 in the experiment filed under Cavia porcellus of 4.8 µM. On Phosphodiesterase 3, this molecule came in with an IC50 of 0.06 µM.

In the experiment listed under Cavia porcellus, `COc1ccc(C(=O)N2CCCc3cc(C4=NNC(=O)SC4C)ccc32)cc1OC` (stereo in doubt; form 2) yielded an EC50 above 100 µM. This molecule had an IC50 against Phosphodiesterase 3 of 0.05 µM.

As for `COc1ccc(C(=O)N2CCCc3cc(C4=NNC(=O)SC4C)ccc32)cc1OC` (stereo in doubt; form 3), the EC50 in the experiment filed under Cavia porcellus was 1.7 µM. Moreover, the IC50 against Phosphodiesterase 3 worked out at 1.94 µM.

The values above are taken from ChEMBL document CHEMBL1126424, “Preparation of the enantiomers of the novel CA-sensitizer EMD 53 998” (Bioorg Med Chem Lett, 1992).
